Data reported in the kinase profiling compilation of Christmann-Franck et al. (2016).

Tests used:
Experiment in all cases: KINOMEscan competition binding
Conditions in all cases: compound 10.0 µM
PIM1 (human) = PIM1 (human) (UniProt P11309)
CDKL2 (human) = CDKL2 (human) (UniProt Q92772)
CDK15 (human) = CDK15 (human) (UniProt Q96Q40)
IRAK3 (human) = IRAK3 (human) (UniProt Q9Y616)
PIK3CD (human) = PIK3CD (human) (UniProt O00329)
PRKD2 (human) = PRKD2 (human) (UniProt Q9BZL6)
CDK8 (human) = CDK8 (human) (UniProt P49336)
RPS6KA2 KD1 (human) = RPS6KA2 KD1 (human) (UniProt Q15349)
PDGFRA (human) = PDGFRA (human) (UniProt P16234)
CLK4 (human) = CLK4 (human) (UniProt Q9HAZ1)
STK10 (human) = STK10 (human) (UniProt O94804)
Chain of STK10 (human) (O94804 whole entry, looked up): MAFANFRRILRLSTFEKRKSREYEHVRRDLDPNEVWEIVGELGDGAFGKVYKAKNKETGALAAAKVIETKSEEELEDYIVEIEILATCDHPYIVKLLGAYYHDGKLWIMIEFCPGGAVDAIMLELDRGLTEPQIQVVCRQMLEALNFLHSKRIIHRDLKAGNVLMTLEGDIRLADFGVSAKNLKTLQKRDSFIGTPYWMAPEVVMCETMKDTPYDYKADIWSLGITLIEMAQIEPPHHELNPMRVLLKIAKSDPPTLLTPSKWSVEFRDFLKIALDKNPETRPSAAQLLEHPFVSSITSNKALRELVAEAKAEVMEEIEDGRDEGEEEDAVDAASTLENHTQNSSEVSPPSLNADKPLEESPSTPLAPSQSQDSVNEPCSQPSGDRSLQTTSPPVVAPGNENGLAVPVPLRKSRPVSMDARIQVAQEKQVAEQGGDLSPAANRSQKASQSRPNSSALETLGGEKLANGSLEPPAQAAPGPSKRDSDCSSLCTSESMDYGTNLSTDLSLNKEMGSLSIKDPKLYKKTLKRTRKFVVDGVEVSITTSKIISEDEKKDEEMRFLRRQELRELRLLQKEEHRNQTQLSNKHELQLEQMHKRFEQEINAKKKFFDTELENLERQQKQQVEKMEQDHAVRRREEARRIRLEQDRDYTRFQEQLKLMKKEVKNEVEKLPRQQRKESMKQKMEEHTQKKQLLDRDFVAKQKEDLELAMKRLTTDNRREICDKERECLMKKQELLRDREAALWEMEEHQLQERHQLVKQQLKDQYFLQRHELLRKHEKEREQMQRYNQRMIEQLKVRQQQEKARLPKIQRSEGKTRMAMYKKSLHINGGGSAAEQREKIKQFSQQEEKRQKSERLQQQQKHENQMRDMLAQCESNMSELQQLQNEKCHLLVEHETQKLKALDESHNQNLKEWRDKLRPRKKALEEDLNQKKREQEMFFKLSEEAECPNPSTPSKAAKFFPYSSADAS

MKNK1 (human) = MKNK1 (human) (UniProt Q9BUB5)
Chain of MKNK1 (human) (Q9BUB5 whole entry, looked up): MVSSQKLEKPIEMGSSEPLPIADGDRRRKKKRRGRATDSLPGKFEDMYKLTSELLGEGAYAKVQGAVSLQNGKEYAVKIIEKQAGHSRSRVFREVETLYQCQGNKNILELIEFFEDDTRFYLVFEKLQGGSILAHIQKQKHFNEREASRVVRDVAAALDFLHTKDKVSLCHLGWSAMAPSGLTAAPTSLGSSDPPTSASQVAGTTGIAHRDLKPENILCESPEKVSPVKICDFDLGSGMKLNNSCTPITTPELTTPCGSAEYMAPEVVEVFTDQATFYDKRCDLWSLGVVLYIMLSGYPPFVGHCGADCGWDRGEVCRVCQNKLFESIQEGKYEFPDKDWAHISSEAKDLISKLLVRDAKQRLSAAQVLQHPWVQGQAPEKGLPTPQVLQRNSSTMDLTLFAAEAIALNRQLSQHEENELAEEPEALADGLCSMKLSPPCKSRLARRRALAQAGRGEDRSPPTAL

CDK18 (human) = CDK18 (human) (UniProt Q07002)
[1] = test system: FLT3 (human), P36888 [N841I]
PRKX (human) = PRKX (human) (UniProt P51817)
GSK3B (human) = GSK3B (human) (UniProt P49841)
PAK1 (human) = PAK1 (human) (UniProt Q13153)
Chain of PAK1 (human) (Q13153 whole entry, looked up): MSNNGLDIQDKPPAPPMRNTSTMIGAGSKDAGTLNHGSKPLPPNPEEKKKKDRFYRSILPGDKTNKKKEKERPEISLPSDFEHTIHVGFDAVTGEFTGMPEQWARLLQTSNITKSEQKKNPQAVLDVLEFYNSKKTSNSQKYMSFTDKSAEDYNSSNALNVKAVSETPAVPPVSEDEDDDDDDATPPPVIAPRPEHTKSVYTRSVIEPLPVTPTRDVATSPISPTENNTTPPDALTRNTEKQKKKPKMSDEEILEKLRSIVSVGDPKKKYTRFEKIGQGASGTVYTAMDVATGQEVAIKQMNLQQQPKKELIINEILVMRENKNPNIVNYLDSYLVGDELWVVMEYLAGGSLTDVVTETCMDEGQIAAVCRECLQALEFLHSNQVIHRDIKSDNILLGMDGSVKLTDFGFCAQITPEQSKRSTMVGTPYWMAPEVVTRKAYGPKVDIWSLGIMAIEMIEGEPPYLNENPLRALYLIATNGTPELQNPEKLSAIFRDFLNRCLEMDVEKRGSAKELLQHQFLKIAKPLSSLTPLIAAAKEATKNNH

EPHA1 (human) = EPHA1 (human) (UniProt P21709)
SYK (human) = SYK (human) (UniProt P43405)
DAPK3 (human) = DAPK3 (human) (UniProt O43293)
SRC (human) = SRC (human) (UniProt P12931)
RIOK1 (human) = RIOK1 (human) (UniProt Q9BRS2)
MERTK (human) = MERTK (human) (UniProt Q12866)
CDK16 (human) = CDK16 (human) (UniProt Q00536)
RET (human) = RET (human) (UniProt P07949)
CSNK1D (human) = CSNK1D (human) (UniProt P48730)
Chain of CSNK1D (human) (P48730 whole entry, looked up): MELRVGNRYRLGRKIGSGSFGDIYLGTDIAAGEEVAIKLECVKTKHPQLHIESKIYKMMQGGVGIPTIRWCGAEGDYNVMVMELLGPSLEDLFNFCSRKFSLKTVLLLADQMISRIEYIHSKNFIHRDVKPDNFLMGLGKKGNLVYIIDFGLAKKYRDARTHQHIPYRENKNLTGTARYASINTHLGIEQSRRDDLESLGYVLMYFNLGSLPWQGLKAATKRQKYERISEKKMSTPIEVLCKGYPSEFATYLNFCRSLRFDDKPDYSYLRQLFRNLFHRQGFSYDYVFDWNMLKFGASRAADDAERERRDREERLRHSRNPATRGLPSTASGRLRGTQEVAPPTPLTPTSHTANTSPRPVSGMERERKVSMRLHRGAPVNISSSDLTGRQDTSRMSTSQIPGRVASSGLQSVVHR

TYRO3 (human) = TYRO3 (human) (UniProt Q06418)
RAF1 (human) = RAF1 (human) (UniProt P04049)
MAP3K4 (human) = MAP3K4 (human) (UniProt Q9Y6R4)
STK4 (human) = STK4 (human) (UniProt Q13043)
CAMKK1 (human) = CAMKK1 (human) (UniProt Q8N5S9)
LIMK1 (human) = LIMK1 (human) (UniProt P53667)
CDK11B (human) = CDK11B (human) (UniProt P21127)
CDC42BPB (human) = CDC42BPB (human) (UniProt Q9Y5S2)
Chain of CDC42BPB (human) (Q9Y5S2 whole entry, looked up): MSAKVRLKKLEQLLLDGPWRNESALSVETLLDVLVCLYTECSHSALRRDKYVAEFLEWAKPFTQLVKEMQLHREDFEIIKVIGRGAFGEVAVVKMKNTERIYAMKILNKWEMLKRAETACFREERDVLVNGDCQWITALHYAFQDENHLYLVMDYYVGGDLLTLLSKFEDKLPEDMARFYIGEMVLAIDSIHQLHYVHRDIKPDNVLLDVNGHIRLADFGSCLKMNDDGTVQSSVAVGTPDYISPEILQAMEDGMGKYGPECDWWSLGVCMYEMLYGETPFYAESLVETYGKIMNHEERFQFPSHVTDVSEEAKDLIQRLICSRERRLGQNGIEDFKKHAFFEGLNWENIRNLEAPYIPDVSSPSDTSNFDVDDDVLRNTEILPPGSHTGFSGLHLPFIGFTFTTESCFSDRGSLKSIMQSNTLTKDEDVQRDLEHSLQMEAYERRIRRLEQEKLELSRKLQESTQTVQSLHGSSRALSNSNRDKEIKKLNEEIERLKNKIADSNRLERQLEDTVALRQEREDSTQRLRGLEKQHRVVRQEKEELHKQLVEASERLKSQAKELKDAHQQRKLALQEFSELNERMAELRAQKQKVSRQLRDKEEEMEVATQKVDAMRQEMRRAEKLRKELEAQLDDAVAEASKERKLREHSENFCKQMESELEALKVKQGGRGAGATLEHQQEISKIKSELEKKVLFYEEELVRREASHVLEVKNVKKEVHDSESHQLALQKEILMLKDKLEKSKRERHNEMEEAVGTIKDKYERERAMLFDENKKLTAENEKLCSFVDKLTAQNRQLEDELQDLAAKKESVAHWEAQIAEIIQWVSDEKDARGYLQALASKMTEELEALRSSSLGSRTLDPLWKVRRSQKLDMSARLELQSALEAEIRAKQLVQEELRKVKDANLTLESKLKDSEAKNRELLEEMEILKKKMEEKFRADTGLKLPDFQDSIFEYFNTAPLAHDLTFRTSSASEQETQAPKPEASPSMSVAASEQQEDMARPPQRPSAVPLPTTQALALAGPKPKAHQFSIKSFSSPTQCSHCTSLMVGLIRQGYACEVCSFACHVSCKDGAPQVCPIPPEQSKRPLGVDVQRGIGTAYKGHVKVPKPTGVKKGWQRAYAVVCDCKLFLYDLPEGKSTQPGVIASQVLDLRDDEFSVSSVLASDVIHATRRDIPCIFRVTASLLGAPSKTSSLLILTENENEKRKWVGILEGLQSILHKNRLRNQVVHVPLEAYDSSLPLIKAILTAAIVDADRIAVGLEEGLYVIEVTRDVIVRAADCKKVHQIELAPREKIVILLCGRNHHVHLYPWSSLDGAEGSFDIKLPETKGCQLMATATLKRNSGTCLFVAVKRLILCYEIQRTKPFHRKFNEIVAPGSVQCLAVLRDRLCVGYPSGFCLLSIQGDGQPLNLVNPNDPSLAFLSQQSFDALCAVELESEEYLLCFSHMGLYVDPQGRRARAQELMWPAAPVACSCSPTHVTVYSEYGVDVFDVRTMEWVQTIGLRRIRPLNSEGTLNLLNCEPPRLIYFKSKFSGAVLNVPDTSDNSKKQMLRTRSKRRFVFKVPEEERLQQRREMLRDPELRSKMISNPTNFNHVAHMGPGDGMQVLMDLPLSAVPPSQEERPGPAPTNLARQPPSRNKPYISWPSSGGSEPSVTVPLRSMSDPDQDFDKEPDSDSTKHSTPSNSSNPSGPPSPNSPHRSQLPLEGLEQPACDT

STK35 (human) = STK35 (human) (UniProt Q8TDR2)
Chain of STK35 (human) (Q8TDR2 whole entry, looked up): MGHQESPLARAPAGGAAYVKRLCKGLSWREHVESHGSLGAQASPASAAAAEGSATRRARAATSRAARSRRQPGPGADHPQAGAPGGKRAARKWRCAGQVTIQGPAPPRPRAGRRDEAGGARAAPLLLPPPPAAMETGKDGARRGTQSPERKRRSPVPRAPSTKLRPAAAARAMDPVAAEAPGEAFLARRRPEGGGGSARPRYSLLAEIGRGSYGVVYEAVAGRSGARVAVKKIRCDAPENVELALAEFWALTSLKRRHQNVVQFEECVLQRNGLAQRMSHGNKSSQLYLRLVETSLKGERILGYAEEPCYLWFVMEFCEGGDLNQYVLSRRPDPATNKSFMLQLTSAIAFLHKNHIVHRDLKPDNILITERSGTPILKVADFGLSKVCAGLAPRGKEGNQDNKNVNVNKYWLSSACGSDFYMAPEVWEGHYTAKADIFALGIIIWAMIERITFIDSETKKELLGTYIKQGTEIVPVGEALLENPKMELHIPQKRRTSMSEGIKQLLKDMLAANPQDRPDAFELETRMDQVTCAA

STK3 (human) = STK3 (human) (UniProt Q13188)
MAPK11 (human) = MAPK11 (human) (UniProt Q15759)
CHUK (human) = CHUK (human) (UniProt O15111)
STK33 (human) = STK33 (human) (UniProt Q9BYT3)
MAPKAPK2 (human) = MAPKAPK2 (human) (UniProt P49137)

Chain of PIM1 (human) (P11309 whole entry, looked up): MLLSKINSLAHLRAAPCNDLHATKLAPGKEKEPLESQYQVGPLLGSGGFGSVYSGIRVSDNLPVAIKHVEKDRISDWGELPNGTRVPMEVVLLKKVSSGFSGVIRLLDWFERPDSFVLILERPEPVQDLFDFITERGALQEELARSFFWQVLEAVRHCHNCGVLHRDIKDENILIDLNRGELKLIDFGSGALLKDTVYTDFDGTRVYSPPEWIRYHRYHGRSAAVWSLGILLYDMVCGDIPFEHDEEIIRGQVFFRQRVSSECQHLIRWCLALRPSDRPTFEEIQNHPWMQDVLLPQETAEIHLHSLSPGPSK

SMILES | kinase still bound, per cent of control (PIM1 (human)) [%] | kinase still bound, per cent of control (CDKL2 (human)) [%] | kinase still bound, per cent of control (CDK15 (human)) [%] | kinase still bound, per cent of control (IRAK3 (human)) [%] | kinase still bound, per cent of control (PIK3CD (human)) [%] | kinase still bound, per cent of control (PRKD2 (human)) [%] | kinase still bound, per cent of control (CDK8 (human)) [%] | kinase still bound, per cent of control (RPS6KA2 KD1 (human)) [%] | kinase still bound, per cent of control (PDGFRA (human)) [%] | kinase still bound, per cent of control (CLK4 (human)) [%] | kinase still bound, per cent of control (STK10 (human)) [%] | kinase still bound, per cent of control (MKNK1 (human)) [%] | kinase still bound, per cent of control (CDK18 (human)) [%] | kinase still bound, per cent of control [1] [%] | kinase still bound, per cent of control (PRKX (human)) [%] | kinase still bound, per cent of control (GSK3B (human)) [%] | kinase still bound, per cent of control (PAK1 (human)) [%] | kinase still bound, per cent of control (EPHA1 (human)) [%] | kinase still bound, per cent of control (SYK (human)) [%] | kinase still bound, per cent of control (DAPK3 (human)) [%] | other results
O=C(NC1CC1)c1cccc(-c2ccc3c(NC(=O)C4CC4)n[nH]c3c2)c1 | 70 | 8.6 | 84 | 69 | 85 | 100 | 76 | 96 | 29 | 100 | 57 | 69 | 58 | 33 | 100 | 97 | 70 | 98 | 100 | 69 | kinase still bound, per cent of control (SRC (human)): 100%; kinase still bound, per cent of control (RIOK1 (human)): 10%; kinase still bound, per cent of control (MERTK (human)): 71%; kinase still bound, per cent of control (CDK16 (human)): 5%; kinase still bound, per cent of control (RET (human)): 86%; kinase still bound, per cent of control (CSNK1D (human)): 78%; kinase still bound, per cent of control (TYRO3 (human)): 100%; kinase still bound, per cent of control (RAF1 (human)): 78%; kinase still bound, per cent of control (MAP3K4 (human)): 93%; kinase still bound, per cent of control (STK4 (human)): 76%; kinase still bound, per cent of control (CAMKK1 (human)): 37%; kinase still bound, per cent of control (LIMK1 (human)): 100%; kinase still bound, per cent of control (CDK11B (human)): 97%; kinase still bound, per cent of control (CDC42BPB (human)): 76%; kinase still bound, per cent of control (STK35 (human)): 16%; kinase still bound, per cent of control (STK3 (human)): 100%; kinase still bound, per cent of control (MAPK11 (human)): 2.6%; kinase still bound, per cent of control (CHUK (human)): 76%; kinase still bound, per cent of control (STK33 (human)): 100%; kinase still bound, per cent of control (MAPKAPK2 (human)): 100%
C=CC(=O)Nc1cccc(Nc2nc(N[C@H]3CC[C@H](N(C)C)CC3)nc3c2ncn3C(C)C)c1 | 92 | 100 | 100 | 38 | 92 | 100 | 100 | 4.4 | 59 | 5.1 | 72 | 32 | 77 | 0 | 100 | 94 | 78 | 72 | 72 | 23 | kinase still bound, per cent of control (SRC (human)): 4%; kinase still bound, per cent of control (RIOK1 (human)): 31%; kinase still bound, per cent of control (MERTK (human)): 16%; kinase still bound, per cent of control (CDK16 (human)): 100%; kinase still bound, per cent of control (RET (human)): 73%; kinase still bound, per cent of control (CSNK1D (human)): 0.75%; kinase still bound, per cent of control (TYRO3 (human)): 100%; kinase still bound, per cent of control (RAF1 (human)): 100%; kinase still bound, per cent of control (MAP3K4 (human)): 100%; kinase still bound, per cent of control (STK4 (human)): 78%; kinase still bound, per cent of control (CAMKK1 (human)): 40%; kinase still bound, per cent of control (LIMK1 (human)): 100%; kinase still bound, per cent of control (CDK11B (human)): 100%; kinase still bound, per cent of control (CDC42BPB (human)): 76%; kinase still bound, per cent of control (STK35 (human)): 80%; kinase still bound, per cent of control (STK3 (human)): 57%; kinase still bound, per cent of control (MAPK11 (human)): 89%; kinase still bound, per cent of control (CHUK (human)): 82%; kinase still bound, per cent of control (STK33 (human)): 15%; kinase still bound, per cent of control (MAPKAPK2 (human)): 100%
N#Cc1c(NC(=O)c2cccc3ccccc23)sc2c1CCCC2 | 100 | 97 | 69 | 100 | 100 | 88 | 100 | 93 | 89 | 84 | 67 | 100 | 95 | 86 | 100 | 66 | 100 | 85 | 99 | 88 | kinase still bound, per cent of control (SRC (human)): 81%; kinase still bound, per cent of control (RIOK1 (human)): 100%; kinase still bound, per cent of control (MERTK (human)): 100%; kinase still bound, per cent of control (CDK16 (human)): 100%; kinase still bound, per cent of control (RET (human)): 94%; kinase still bound, per cent of control (CSNK1D (human)): 100%; kinase still bound, per cent of control (TYRO3 (human)): 76%; kinase still bound, per cent of control (RAF1 (human)): 100%; kinase still bound, per cent of control (MAP3K4 (human)): 86%; kinase still bound, per cent of control (STK4 (human)): 94%; kinase still bound, per cent of control (CAMKK1 (human)): 91%; kinase still bound, per cent of control (LIMK1 (human)): 76%; kinase still bound, per cent of control (CDK11B (human)): 95%; kinase still bound, per cent of control (CDC42BPB (human)): 80%; kinase still bound, per cent of control (STK35 (human)): 64%; kinase still bound, per cent of control (STK3 (human)): 91%; kinase still bound, per cent of control (MAPK11 (human)): 100%; kinase still bound, per cent of control (STK33 (human)): 86%; kinase still bound, per cent of control (MAPKAPK2 (human)): 93%
